Results taken from patent publication US20260234116A1, “CYTOTOXIC EPOXYKETONE COMPOUNDS, PRECURSORS, COMPOSITIONS, AND METHODS OF USE” (Memorial Sloan-Kettering Cancer Center, priority 2023, published 2026).
Like-named read-outs stand apart in the source and are kept apart here.

What was measured:
EpnF [1] = target: T1, EpnF (Streptomyces hygroscopicus, UniProt V5RMU9); assay: Semiquantitative epoxide capture assay (EpnF-catalyzed epoxyketone formation); assay type: biochemical; conditions: 1 μM EpnF; for EpnF-catalyzed formation of epoxyketone (epoxide capture): 250 μM β-ketoacid substrate, 1 h, positive control 11n (FIG. 1); for EpnF-catalyzed conversion to epoxyketone (epoxide capture): 240 μM β-ketoacid substrate (FIG. 2)
T1 sequence (V5RMU9 entry or part of it): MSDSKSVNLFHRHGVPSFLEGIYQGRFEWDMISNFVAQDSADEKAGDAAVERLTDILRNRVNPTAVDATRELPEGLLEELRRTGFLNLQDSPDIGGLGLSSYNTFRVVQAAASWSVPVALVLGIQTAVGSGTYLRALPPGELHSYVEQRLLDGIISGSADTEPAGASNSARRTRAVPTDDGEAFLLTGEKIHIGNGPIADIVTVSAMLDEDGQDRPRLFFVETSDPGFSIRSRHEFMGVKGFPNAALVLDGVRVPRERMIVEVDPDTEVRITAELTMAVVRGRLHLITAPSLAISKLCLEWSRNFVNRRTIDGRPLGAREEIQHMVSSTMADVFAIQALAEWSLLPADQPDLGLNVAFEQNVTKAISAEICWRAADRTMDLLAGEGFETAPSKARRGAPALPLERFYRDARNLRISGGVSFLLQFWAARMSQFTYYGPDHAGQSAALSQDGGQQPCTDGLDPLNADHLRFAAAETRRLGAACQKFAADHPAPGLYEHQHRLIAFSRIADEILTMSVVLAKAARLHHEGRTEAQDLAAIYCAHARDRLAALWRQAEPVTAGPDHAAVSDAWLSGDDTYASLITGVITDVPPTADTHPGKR
Experimental: Recombinant EpnF was diluted to 1 μM in 180 μL EpnF Buffer in an 1.5 mL Eppendorf tube. The β-ketoacid 11 was added at various concentrations to a total reaction volume of 200 μL. The mixture was incubated in a heated shaker at 37° C. and 225 rpm for 1 h. The reaction mixture (30 μL×3 technical replicates) was transferred to a white, opaque 96-well plate (PerkinElmer, OptiPlate-96). Each plate also contained 30 μL×3 technical replicates of EpnF Buffer as a negative control. To each well, 15 μL of 125 mM nicotinamide in EpnF Buffer was added and mixed by pipetting. The plate was sealed with an adhesive foil cover (VWR Adhesive Foil for Microplates) and heated in an oven at 80° C. for 1 h. The plate was cooled to rt and 25 μL of 15% (v/v) acetophenone in EtOH and 25 μL of 1 M potassium hydroxide in EtOH were added to each well, then mixed by pipetting. The plate was cooled on ice for 10 min, then 125 μL formic acid was added to each well. The plate was resealed and heated in an oven at 100° C. for 5 min. The plate was cooled on ice for 5-10 min, then analyzed (λex 370 nm, λem 430 nm) on a fluorescence plate reader (Molecular Devices Spectramax M3).
We adapted a reported epoxide capture assay [Nelis, H. J. C. F.; Sinsheimer, J. E. (1981) A sensitive fluorimetric procedure for the determination of aliphatic epoxides under physiological conditions. Anal. Biochem. 115, 151-157.] to 96-well plate format to detect formation of the epoxyketone products semiquantitatively. Each β-ketoacid substrate 11 was incubated with recombinant, purified EpnF (1 h), then reacted with nicotinamide and acetophenone (1 h) to form a fluorescent 1,6-naphthyridinone 24. The fluorescent signals were normalized to that resulting from the known substrate β-ketoacid 11n as a positive control [Zabala, D.; Cartwright, J. W.; Roberts, D. M.; Law, B. J. C.; Song, L.; Samborskyy, M.; Leadlay, P. F.; Micklefield, J.; Challis, G. L. (2016) A flavin-dependent decarboxylase-dehydrogenase-monooxygenase assembles the warhead of α,β-epoxyketone proteasome inhibitors. J. Am. Chem. Soc. 138, 4342-4345.].

Raji B-cell lymphoma = assay: Cytotoxicity of epoxyketones, CellTitre-Glo, 48 h; assay type: cell-based; conditions: Homo sapiens
Experimental: (§1) Cytotoxicity Assays. Cancer cell lines (ATCC: U266 multiple myeloma, EL4 mouse lymphoma, Raji B-cell lymphoma) were cultured in Roswell Park Memorial Institute (RPMI) medium supplemented with 10% fetal bovine serum (FBS), 2 mM L-glutamine, 100 IU/mL penicillin, 100 μg/mL nonessential amino acids, 1 mM sodium pyruvate, and 57 μM β-mercaptoethanol. Cells (90 μL) were seeded in the inner 60 wells of an opaque-wall, clear flat-bottom 96-well plate (Corning/Falcon, 351177) at 20,000 cells per well. The outer perimeter wells were filled with 200 μL PBS to reduce evaporation in the central 60 wells. Epoxyketones 12 (20 mM in DMSO) were diluted in RPMI media to 1 mM (5% DMSO final concentration). Each epoxyketone was then diluted log-fold into 10 concentrations with 5% DMSO in RPMI. Each epoxyketone solution (10 μL) was added to the cells for a 0.5% DMSO final concentration across all wells and final epoxyketone concentrations of 100-0.005 μM. Negative control wells were treated with 10 μL of 5% DMSO in RPMI. Cells were incubated with compounds for 48 h, then cytotoxicity was measured with the CellTitre-Glo assay (Promega G9241).

EL4 mouse lymphoma = assay: Cytotoxicity of epoxyketones, CellTitre-Glo, 48 h; assay type: cell-based; conditions: EL4, 48 h
Experimental: as §1

U266 multiple myeloma = assay: Cytotoxicity of epoxyketones, CellTitre-Glo, 48 h; assay type: cell-based; conditions: Homo sapiens, U-266, U266, 48 h
Experimental: as §1

EpnF [2] = target: T1, EpnF; assay: Enzyme kinetic analysis by SPE-MS/MS assay; assay type: biochemical; conditions: EpnF Buffer
Experimental: SPE-MS/MS analyses were carried out on an Agilent RapidFire 365 High-Throughput Mass Spectrometry System with 6495 triple quadrupole mass spectrometer. Determination of initial velocity: EpnF stock at 100 μM was diluted 10-fold in EpnF Buffer to a 10 μM working solution, which was further diluted to 8 concentrations (10-0.005 μM) in EpnF Buffer (intermediate volume 1350 μL, concentrations calculated for 1500 μL theoretical final volume corresponding to addition of substrate solutions below). The 8 EpnF enzyme dilutions were aliquoted (90 μL) into the corresponding 8 tubes of PCR tube strips (12 strips, one per time point; Thermo Scientific, AB-2000). The β-ketoacid 11 (20 mM in EtOH) was diluted to 10 μM in EpnF Buffer, then 10 μL of this solution was added to each of the tubes (1 μM final concentration, 100 μL final volume) to initiate the reaction. Samples were incubated in a heated shaker at 37° C. and 225 rpm for up to 120 min, and one tube strip was removed at each time point. Each tube was quenched with 5% formic acid in EpnF Buffer (100 μL), pipetted vigorously, and flash frozen on dry ice. Samples were thawed then centrifuged to precipitate protein and transferred to a conical-bottom 96-well plate (Thermo Scientific/Nunc, 249944) for SPE-MS/MS analysis. Measurement of Km and Vmax: Using the data from the initial velocity experiments above, an appropriate EpnF enzyme concentration was selected for each β-ketoacid 11 at which the rate of conversion to the epoxyketone 12 remained linear at 10 min (0.50 μM for 11n and 0.05 μM for all other substrates). Each substrate (20 mM in EtOH) was diluted to 1 mM in EpnF Buffer, then diluted to 8 concentrations (100-0.5 μM) in EpnF Buffer (intermediate volume 1350 μL, concentrations calculated for 1500 μL theoretical volume corresponding to addition of enzyme solutions below). The 8 substrate dilutions were aliquoted (90 μL) into the corresponding 8 tubes of PCR tube strips (12 strips, one per time point; Thermo Scientific, AB-2000). The EpnF enzyme stock solution was diluted in EpnF Buffer to the appropriate concentration for each substrate, then 10 μL of this solution was added to each of the tubes (100 μL final volume) to initiate the reaction. For the 0-min time point, 5% formic acid in EpnF Buffer was added to the β-ketoacid substrate before addition of the enzyme. Samples were incubated in a heated shaker at 37° C. and 225 rpm for up to 10 min, and one tube strip was removed at each time point. Each tube was quenched by addition of 5% formic acid in EpnF Buffer (100 μL), pipetted vigorously, and flash frozen on dry ice. Samples were thawed then centrifuged to precipitate proteins and the supernatants were transferred to a conical-bottom 96-well plate (Thermo Scientific/Nunc, 249944) for SPE-MS/MS analysis. Km and Vmax values for each substrate were calculated by Michaelis-Menten analysis. To obtain a quantitative assessment of EpnF substrate specificity, we developed a kinetic assay (10 min) using SPE-MS/MS (solid-phase extraction/triple quadrupole mass spectrometry; Agilent RapidFire 365 with 6495 MS) to enable direct detection of both substrates and products.

[3] = Stability of β-ketoacid substrates (decarboxylation, 1H-NMR or SPE-MS/MS); assay type: physicochemical
Experimental: To assess rates of decarboxylation under conditions relevant to storage, biochemical assays, and cellular assays, we investigated the stability of eponemycin-based β-ketoacids 11a and 11c under a variety of conditions as shown in below Table C.
For samples stored neat, β-ketoacid 11 (lyophilized powder) was aliquoted into 1.5-2 mg samples in glass vials and placed under Ar. Samples were stored on the bench top (20-25° C.), in at 4° C. refrigerator or in a −20° C. freezer. At each time point, an entire aliquot was dissolved in CD3OD (600 μL) analyzed by ^1H-NMR for decarboxylation to the corresponding isopropyl ketone byproduct 22. The degree of decarboxylation was determined by comparing integrations of two singlet peaks at 1.40 and 1.33 ppm, arising from the α,α-dimethyl groups in the β-ketoacid 11, to two doublet peaks at 1.09 and 1.06 ppm, arising from the isopropyl methyl groups in the decarboxylation product 22. A septuplet corresponding to the methine proton of the isopropyl group was also observed at 2.91 ppm.
For samples stored in PBS, aliquots of β-ketoacid 11 were dissolved in deuterated PBS (600 μL) and incubated in a 37° C. shaking incubator. At each time point, one aliquot was removed and analyzed by ^1H-NMR as above. NMR changes observed in deuterated PBS were similar to those observed in CD3OD above.
For samples stored in RPMI, β-ketoacid 11 (lyophilized powder) was dissolved in EtOH to a working stock concentration of 20 mM. The sample was diluted in RPMI to 100 μM (1000 μL) and incubated at 37° C. At each time point, an aliquot (50 μL) was removed from the master sample, transferred to a 96-well plate, quenched with 4 vol MeOH, centrifuged at 4,000 g to precipitate debris, and immediately analyzed by SPE-MS/MS to quantitate β-ketoacid 11 remaining.

Row | SMILES | IC50 (Raji B-cell lymphoma; read-out: IC50) | IC50 (Raji B-cell lymphoma; read-out: log IC50 (converted)) | IC50 (EL4 mouse lymphoma; read-out: IC50) | IC50 (EL4 mouse lymphoma; read-out: log IC50 (converted)) | IC50 (U266 multiple myeloma; read-out: IC50) | IC50 (U266 multiple myeloma; read-out: log IC50 (converted)) | EpnF-catalyzed conversion to epoxyketone (epoxide capture) (EpnF [1]) | further results
1 | C=C(C)C[C@H](NC(=O)[C@H](CO)NC(=O)CCCCC(C)C)C(=O)C(C)(CO)C(=O)O (single isomer, unassigned) [Compound 11d] |  |  |  |  |  |  |  | EpnF-catalyzed formation of epoxyketone (epoxide capture) (EpnF [1]): no epoxide formation was detected
2 | CCCC(=O)N[C@@H](CO)C(=O)N[C@@H](CC(C)C)C(=O)[C@@]1(C)CO1 [Compound 12n] | 5.4 µM | 5.37 µM | 5.7 µM | 5.37 µM | 4.8 µM | 4.79 µM |  | 
3 | CCCCCCCCCC(=O)N[C@@H](CO)C(=O)N[C@@H](CC(C)C)C(=O)C(C)(C)C(=O)O [Compound 11q, (4S)-4-[(2S)-2-Decanamido-3-hydroxypropanamido]-2,2,6-trimethyl-3-oxoheptanoic acid] |  |  |  |  |  |  | permitted | solubility (kinetic parameters could not be determined) (EpnF [2]): solubility limitations
4 | CC(C)CCCCC(=O)N[C@@H](C)C(=O)N[C@@H](CC(C)C)C(=O)C(C)(C)C(=O)O [Compound 11j, (4S)-2,2,6-Trimethyl-4-[(2S)-2-(6-methylheptanamido)propanamido]-3-oxoheptanoic acid] |  |  |  |  |  |  | tolerated | 
5 | CC(C)CCCCC(=O)N[C@H](C(=O)N[C@@H](CC(C)C)C(=O)[C@@]1(C)CO1)[C@@H](C)O [Compound 12l, N-[(1S)-2-Hydroxy-1-{[(2S)-4-methyl-1-[(2R)-2-methyloxiran-2-yl]-1-oxopentan-2-yl]carbamoyl}propyl]-6-methylheptanamide] | 2.1 µM | 2.09 µM | 3.7 µM | 3.55 µM | 2.1 µM | 2.14 µM |  | 
6 | CC(C)CCCCC(=O)N[C@@H](CO)C(=O)N[C@@H](CC(C)C)C(=O)C(C)C(=O)O (stereo partly shown) [Compound 11e] |  |  |  |  |  |  | not tolerated | 
7 | CC(C)CCCCC(=O)N[C@@H](C)C(=O)N[C@@H](CC(C)C)C(=O)[C@@]1(C)CO1 [Compound 12j, 6-Methyl-N-[(1S)-1-{[(2S)-4-methyl-1-[(2R)-2-methyloxiran-2-yl]-1-oxopentan-2-yl]carbamoyl}ethyl]heptanamide] | 1.9 µM | 1.91 µM | 3.2 µM | 3.02 µM | 2.2 µM | 2.19 µM |  | 
8 | CC(C)C[C@H](NC(=O)[C@H](CO)NC(=O)c1ccccc1)C(=O)[C@@]1(C)CO1 [Compound 12o, (2S)-3-Hydroxy-N-[(2S)-4-methyl-1-[(2R)-2-methyloxiran-2-yl]-1-oxopentan-2-yl]-2-(phenylformamido)propenamide] | 3.6 µM | 3.47 µM | 7.2 µM | 7.24 µM | 2.7 µM | 2.69 µM |  | 
9 | CC(C)CCCCC(=O)N[C@@H](CO)C(=O)N[C@@H](C)C(=O)C(C)(C)C(=O)O [Compound 11f, (4S)-4-[(2S)-3-Hydroxy-2-(6-methylheptanamido)propanamido]-2,2-dimethyl-3-oxopentanoic acid] |  |  |  |  |  |  | could not be truncated to alanine | 
10 | CC(C)CCCCC(=O)N[C@@H](CO)C(=O)N[C@@H](CC(C)C)C(=O)C(C)(CO)C(=O)O (single isomer, unassigned) [Compound 11c] |  |  |  |  |  |  |  | half-life ([3]; deuterated PBS, PBS, 37° C.): 15 min; stability / rate of decarboxylation (in words) ([3]; neat at low temperatures, buffer or media at 37° C.): considerably faster; EpnF-catalyzed formation of epoxyketone (epoxide capture) (EpnF [1]): no epoxide formation was detected
11 | CC(C)CCCCC(=O)N[C@@H](Cc1ccccc1)C(=O)N[C@@H](CC(C)C)C(=O)C(C)(C)C(=O)O [Compound 11m, (4S)-2,2,6-Trimethyl-4-[(2S)-2-(6-methylheptanamido)-3-phenylpropanamido]-3-oxoheptanoic acid] |  |  |  |  |  |  | not accepted | 
